“And” between values parts separate entries of the source, which are not always exact repeats. Equal values may be shown once. Read-outs that look alike come from different tables or passages of the source. Bounds are passed on as bounds.

Results on two compounds are retold here after patent US12551464B2, “N-(3-amino-3-oxopropyl)-2-[(1-methyl-4-nitro-1H-imidazol-5-yl)thio]benzamide and its use for treating HIV infection” (The United States of America, as represented by the …, priority 2019, dated 2026).

A short description of series [1]: Toxicity of metabolite, method not described.
A short description of series [2]: CD4 count in SIV-infected rhesus macaques. The series is classed as in vivo. Here is the method: (§1) Two SIV-infected rhesus macaques were treated with 300 mg/kg of the compound of formula (I) once daily via oral gavage. Viral load before treatment and after 6 months of treatment were measured by RT-PCR. Viral infectivity was determined by measuring the amount of p27 Gag (in pg/mL) in a viral infectivity assay wherein virus isolated from the animals was used to infect CEMx174 cells, followed by ELISA. Viral samples were diluted 1:1000 prior to assay. The CD4 count for each monkey was measured after 6 months.

For series [3], the system named is CXCR4 Tropic Clade B HIV-192HT599. In words: Anti-HIV activity in human PBMCs, reverse transcriptase in culture supernatants. The series is classed as cell-based. Particulars: PBMC, 7 days in culture. The protocol:
(§2) PHA-P stimulated PBMCs from three donors were pooled together and resuspended in fresh tissue culture medium at 1×10^6 cells/mL and plated in the interior wells of a 96 well round bottom microplate at 50 μL/well. A 100 μL volume of 9 concentrations of the compound serially diluted were transferred to the round bottom 96 well plate containing the cells in triplicate. 50 μL of HIV-1 at a predetermined dilution was added. Each plate contained cell control wells and virus control wells in parallel with the experimental wells. After 7 days in culture, efficacy was evaluated by measuring the reverse transcriptase in the culture supernatants and the cells were stained with the tetrazolium dye XTT to evaluate cytotoxicity.

Series [4] is described as follows: Cytotoxicity in human PBMCs, XTT staining. The settings on record: human, PHA-P stimulated PBMCs pooled from three donors; Incubation Time 0 hours; 7 days in culture; read-out: TC50. The format is cell-based. Here is the method:
as §2
On the technique in general: Tetrazolium assays rely on reduction of a dye to a coloured formazan, in cell work by metabolically active cells.

The test system of the next series is PBMCs. As to the kind of experiment: Cytotoxicity in human PBMCs, XTT staining. The series is classed as cell-based. Particulars: 7 days in culture, read-out: TC50 (the source's name). The protocol: as §2
In series [5] the test system is simian immunodeficiency virus (SIV). In words: Viral load by RT-PCR in SIV-infected rhesus macaques. The series is classed as in vivo. Here is the method: as §1
Series [6] in a line: Pharmacokinetics in cynomolgus macaques. The series is classed as in vivo. Particulars: 300 mg/kg p.o. oral gavage. Here is the method: The compound of formula (I) was administered to cynomolgus macaques at a dose of 300 mg/kg p.o. via oral gavage.
The test system of series [7] is simian immunodeficiency virus (SIV). As to the kind of experiment: Viral infectivity assay: virus isolated from the animals used to infect CEMx174 cells, p27 Gag ELISA. The format is in vivo, rhesus macaques. The protocol: as §1
For orientation: ELISA stands for enzyme-linked immunosorbent assay.

Series [8] can be described thus: Maximum tolerated dose and dose range finding study in rats. The series is classed as in vivo. Here is the method:
The maximum tolerated dose in rats of the compound of formula (I) was determined to be greater than 2 g/day.

In the case of `CSc1ccccc1C(=O)NCCC(N)=O` [Compound 3], the toxicity entry in [1] was “non-toxic”.

As for `Cn1cnc([N+](=O)[O-])c1Sc1ccccc1C(=O)NCCC(N)=O` [compound of formula (I), N-(3-amino-3-oxopropyl)-2-[(1-methyl-4-nitro-1H-imidazol-5-yl)thio]benzamide], the “Treated CD4 Count” value in series [2] (300 mg/kg once daily oral gavage, after 6 months) is 365 and 363. The “CD4 counts, assessment” value in series [2] (after 6 months of 300 mg/kg p.o. daily) is listed as “deemed normal”. The EC50 – broadly, the concentration giving half of the maximal effect – in series [3] (Incubation Time 0 hours) was found to be 3.23 µM; in [3] (Incubation Time 2 hours), 7.12 µM; in series [3] (Incubation Time 8 hours), 5.18 µM; in [3] (Incubation Time 24 hours) it was 4.45 µM. In addition, the CC50 at 7 days in [4] was > 100 µM. Also, the CC50 in the series on PBMCs (Incubation Time 2 hours), with PBMCs (Incubation Time 8 hours) and in the series on PBMCs (Incubation Time 24 hours) was > 100 µM each time. For the same compound, the “Treated Viral Load” value in series [5] (300 mg/kg once daily oral gavage, after 6 months of treatment, RT-PCR) is 2.86 × 10^4 and 1.73 × 10^3. In addition, in [5] (300 mg/kg p.o. daily over 6 months, versus before treatment), the “reduction in viral load” value is listed as “approximately one”. Moreover, the metabolism in blood entry in series [6] was “converted to two major metabolites”. In addition, the exposure (AUC) – broadly, the area under the concentration-time curve, a measure of exposure – in series [6] (cynomolgus monkey, blood) came out at 5780 ng·h/mL. In addition, the half-life (as a rule, the time in which the quantity being followed falls by half) in series [6] (cynomolgus monkey, blood) was 7.6 h. In series [7] (300 mg/kg once daily oral gavage, 6 months, viral samples diluted 1:1000, CEMx174 cells, ELISA), the “Treated Viral Infectivity (p27 Gag)” value was <0.1 pg/mL. Further, in [7] (300 mg/kg p.o. daily over 6 months), the “viral infectivity of SIV from treated animals compared with before treatment” value is on record as “significantly decreased”. Besides, the “adverse clinical outcomes in dose range finding study” value in series [8] (2 g/kg p.o., once per day for 14 days) was “did not show adverse clinical outcomes”. In addition, the MTD – broadly, the largest dose that counted as tolerated – at 14 days in [8] (rat, in vivo, oral, 2 g/kg) is > 2000 mg/kg/day.
